Measured values published in US20190314377A1, “TREATMENT OF HEMATOLOGICAL MALIGNANCY WITH SMALL MOLECULE NF-KB INHIBITORS” (MEMORIAL SLOAN-KETTERING CANCER CENTER, priority 2016, published 2019).

Legend:
[1] = system: luciferase-expressing MM.1S cells; test: MM.1S xenograft model of multiple myeloma in NSG mice; assay type: in vivo, mouse; settings: IT-848 10 mg/kg i.p. M/W/F x 4 weeks; Bortezomib 0.5 mg/kg i.p. M/T x 4 weeks
Experimental: NSG mice received 2.5×10^6 luciferase-expressing MM.1S cells intravenously. After 10 days engraftment was confirmed and mice were assigned to four groups: empty vehicle i.p. M/W/F×4 weeks; Bortezomib 0.5 mg/kg i.p. M/T×4 weeks; IT-848 10 mg/kg i.p. M/W/F×4 weeks; Bortezomib M/T+IT-848 M/W/F×4 weeks. A. Tumor growth was analyzed by in vivo bioluminescence imaging. B. Mean and SEM of bioluminescence intensities are presented. N=7-10 The area under the curve (AUC) was used to summarize the bioluminescence intensity for each subject and a permutation test was performed to determine if there was a difference in the AUCs between groups. P values are as follows: Group 1 vs. 2: 0.008; Group 2 vs. 3: 0.032; Group 1 vs 3: <0.001; Group 2 vs 4: <0.001; Group 1 vs 4: <0.001; Group 3 vs 4: 0.029.
In tumor xenograft experiments the bioluminescent signal intensity (BLI) of tumor bearing mice was determined weekly. […] The cause of death (tumor versus toxicity) was determined based on the presence of hind leg paralysis. Death in the absence of hind leg paralysis was attributed to toxicity.
Efficacy studies of IT-848 combined with drugs that are currently used clinically to treat B cell malignancies were also performed. […] Moreover, IT-848 was efficacious in a xenograft model of MM (FIGS. 14, 15A and 15B) and enhanced the efficacy of bortezomib (FIGS. 15A and 15B). Immunodeficient mice received bioluminescent MM.1S cells intravenously and bone marrow engraftment was confirmed by in vivo bioluminescence imaging (BLI) after ten days. Mice were assigned to three treatment groups (IT-848 single agent, bortezomib single agent, combination of IT-848 and bortezomib) and a control group (empty vehicle IP). Onset of hind leg paralysis, which is the clinical endpoint of progressive disease in this model, was delayed in all three treatment groups (FIG. 9).

[2] = system: interleukin 10 (IL-10); test: IL-10 secretion by ELISA in DLBCL and MM cell lines; assay type: cell-based, human; settings: TMD8, HBL1 and U266 cells; 4 and 6 μM; 12 and 24 hours
Experimental: TMD8, HBL1 and U266 cells were incubated for 24 hours in the presence of empty vehicle or IT-848 (4 and 6 μM). IL-10 concentrations in the culture media were analyzed after 12 and 24 hours by ELISA. Mean and SEM of relative IL-10 levels (percentage of vehicle) are presented.

[3] = system: MM.1S multiple myeloma cells; test: MTS cell proliferation assay, MM.1S; assay type: cell-based, human; settings: 2, 4 and 6 μM, 24 and 48 hours
Experimental: MM.1S human multiple myeloma cells were incubated for 48 hours in the presence of empty vehicle or 2, 4 and 6 μM of IT-848, IT-878, PS-1145, or ibrutinib, Cell proliferation was analyzed after 24 and 48 hours by MTS assay. Mean and SEM or relative cell growth are presented.
(§1) TDM8, Ly19, L363, SUDHL4, MM.1S or U266 cells were independently incubated for up to 48 hours in the presence of empty vehicle, IT-compound (2, 4, 6 μM), PS-1145 (2, 4 and 6 μM), or ibrutinib (2, 4 and 6 μM). Cell growth was measured indirectly after 24 and 48 hours by CellTiter 96 Aqueous Non-Radioactive Cell Proliferation Assay (Promega, Madison, Wis.) per manufacturer's instructions. Briefly, tetrazolium compound [-(4,5-dimethylthiazol-2-yl)-5-(3-carboxymethoxyphenyl)-2-(4-sulfophenyl)-2H-tetrazolium, inner salt; MTS] was added to the culture media and the conversion of MTS into formazon was measured by the amount of 490 nm absorbance. The number of viable cells correlates with absorbance at 490 nm. The results are shown in FIGS. 5A-D. Mean and SEM of relative cell growth are presented.

[4] = system: TMD8 B cell lymphoma cells; test: MTS cell proliferation assay, TMD8; assay type: cell-based, human; settings: 2, 4 and 6 μM, 24 and 48 hours
Experimental: TMD8 human DLBCL cells were incubated for 48 hours in the presence of empty vehicle or 2, 4 and 6 μM of IT-848, IT-878, PS-1145, or ibrutinib, Cell proliferation was analyzed after 24 and 48 hours by MTS assay. Mean and SEM or relative cell growth are presented.
as §1

[5] = system: human peripheral blood mononuclear cells (PBMC); test: Toxicity to healthy cells (DAPI viability, MTS metabolic activity), human PBMC; assay type: cell-based; settings: 24 hours, 1, 3, 6 and 10 μM
Experimental: (§2) Mouse splenocytes and human peripheral blood mononuclear cells (PBMC) were incubated for 24 hours in the presence of empty vehicle or 1, 3, 6 and 10 μM of IT-848 or IT-878. Viability (percentage of DAPI-negative cells) was analyzed by flow cytometry and metabolic activity was analyzed by MTS assay. Mean and SEM of relative viability or metabolic activity are presented.
(§3) Human peripheral blood mononuclear cells (PBMC) were purified from donor blood according to accepted protocols. Mouse splenocytes were purified from mouse spleen using methods known to those skilled in the art.

[6] = system: Nrf2 transcriptional activity; test: HepG2/Luciferase/Nrf2-ARE transcriptional reporter assay; assay type: cell-based; settings: tert-butylhydroquinone treated; 12 hours; 1, 3, 6 and 10 μM
Experimental: (§4) Jurkat/GFP/NF-κB transcriptional reporter cells were stimulated with TNF-α, Jurkat/Luciferase/NFAT transcriptional reporter cells were stimulated with PMA/ionomycin, and HepG2/Luciferase/Nrf2-Antioxidant response element (ARE) transcriptional reporter cells were treated with tert-butylhydroquinone. The respective cell lines were incubated for 12 hours in the presence of empty vehicle or 1, 3, 6 and 10 μM of IT-848 or IT-878. NF-κB transcriptional activity was analyzed by flow cytometry, NFAT and Nrf2 transcriptional activities were analyzed by luminescence measurement. Mean and SEM of relative fluorescent or luminescent intensities are presented.
(§5) A NF-κB/Jurkat/GFP transcription reporter cell line was purchased from System Biosciences. NFAT/Jurkat/Luciferase transcriptional reporter cells were generated at Memorial Sloan-Kettering Cancer Center. HepG2/ARE/Luciferase Nrf2 transcriptional reporter cells were purchased from BPS biosciences.

[7] = system: HBL1 cells; test: MTS assay, combination with Bortezomib in HBL1 cells; assay type: cell-based, human; settings: IT-848 4 μM + Bortezomib 0.02 μM; 24 and 48 hours
Experimental: HBL1 human DLBCL cells were incubated for 48 hours in the presence of empty vehicle, IT-848 (4 μM), Bortezomib (0.02 μM), or a combination of IT-848 and Bortezomib. Cell proliferation was analyzed after 24 and 48 hours by MTS assay. Mean and SEM of relative cell growth are presented.

[8] = system: U266 multiple myeloma cells; test: MTS cell proliferation assay, U266; assay type: cell-based, human; settings: 2, 4 and 6 μM, 24 and 48 hours
Experimental: U266 human multiple myeloma cells were incubated for 48 hours in the presence of empty vehicle or 2, 4 and 6 μM of IT-848, IT-878, PS-1145, or ibrutinib, Cell proliferation was analyzed after 24 and 48 hours by MTS assay. Mean and SEM or relative cell growth are presented.
as §1

[9] = system: NFAT transcriptional activity; test: Jurkat/Luciferase/NFAT transcriptional reporter assay; assay type: cell-based; settings: PMA/ionomycin stimulated; 12 hours; 1, 3, 6 and 10 μM
Experimental: as §4, §5

[10] = Pharmacokinetics, plasma or whole blood levels by LC-MS/MS; assay type: in vivo; settings: 5-10 mg/kg PO, IP or IV; in particular after IP or oral administration
Experimental: Plasma or whole blood samples were analyzed at several time points after intraperitoneal, intravenous or oral administration of 5-10 mg/kg of IT-848. Samples were analyzed by liquid chromatography-tandem mass spectrometry (LC-MS/MS). IT-848 is cleared slowly after systemic administration.

[11] = system: mouse splenocytes; test: Toxicity to healthy cells (DAPI viability, MTS metabolic activity), mouse splenocytes; assay type: cell-based; settings: 24 hours, 1, 3, 6 and 10 μM
Experimental: as §2, §3

[12] = system: TMD8 cells; test: MTS assay, combination with Panobinostat in TMD8 cells; assay type: cell-based, human; settings: IT-848 4 μM + Panobinostat 0.1 μM; 24 and 48 hours
Experimental: TMD8 and DLBCL cells were incubated for 48 hours in the presence of empty vehicle, IT-848 (4 μM), Panobinostat (0.1 μM), or a combination of IT-848 and Panobinaostat. Cell proliferation was analyzed after 24 and 48 hours by MTS assay. Mean and SEM of relative cell growth are presented.

[13] = system: mouse splenocytes; test: ROS levels by DCFDA assay in mouse splenocytes; assay type: cell-based
Experimental: (§6) MM.1S cells, U266 cells or mouse splenocytes were cultured in the presence of empty vehicle or serial dilutions of IT-848. ROS levels were quantified after 4 hours and 24 hours by DCFDA assay.
(§7) Cells were treated in vitro with IT-848 (compound of Formula I), IT-878 (compound of Formula II) or vehicle solution. Reactive oxygen species (ROS) levels were analyzed by cell labelling with 2′, 7′-dichlorofluorescein diacetate (DCFDA) using a Cellular Reactive Oxygen Species Detection Assay Kit (Abcam, Cambridge, Mass.) ROS levels were analyzed by quantifying the fluorogenic marker DCFDA using flow cytometery (LSR II, BD Bioscience, San Jose, Calif.).

[14] = system: SUDHL4 B cell lymphoma cells; test: MTS cell proliferation assay, SUDHL4; assay type: cell-based, human; settings: 2, 4 and 6 μM, 24 and 48 hours
Experimental: SUDHL4 human DLBCL cells were incubated for 48 hours in the presence of empty vehicle or 2, 4 and 6 μM of IT-848, IT-878, PS-1145, or ibrutinib, Cell proliferation was analyzed after 24 and 48 hours by MTS assay. Mean and SEM or relative cell growth are presented.
as §1

[15] = system: NF-κB transcriptional activity; test: Jurkat/GFP/NF-κB transcriptional reporter assay; assay type: cell-based; settings: 12 hours; 1, 3, 6 and 10 μM
Experimental: Jurkat/GFP/NF-κB transcriptional reporter cells were stimulated with TNF-α and incubated for 8 and 22 hours in the presence of empty vehicle or 1, 3 and 6 μM of IT-848 or IT-878. NF-κB transcriptional activity (GFP mean fluorescence intensity) was analyzed by flow cytometry. Mean and SEM of relative fluorescent intensities are presented.
as §4, §5

[16] = system: MM.1S and U266 cells; test: ROS levels by DCFDA assay in multiple myeloma cells; assay type: cell-based, human
Experimental: as §6, §7

[17] = system: interleukin 6 (IL-6); test: IL-6 secretion by ELISA in DLBCL and MM cell lines; assay type: cell-based, human; settings: TMD8, HBL1 and U266 cells; 4 and 6 μM; 12 and 24 hours
Experimental: TMD8, HBL1 and U266 cells were incubated for 24 hours in the presence of empty vehicle or IT-848 (4 and 6 μM). IL-6 concentrations in the culture media were analyzed after 12 and 24 hours by ELISA. Mean and SEM of relative IL-6 levels (percentage of vehicle) are presented.

clearance [10]	Compound	onset of hind leg paralysis [1]	tumor growth by in vivo bioluminescence imaging (BLI) [1]	secretion of IL-10 [2]	cell growth (MTS) [3]	cell growth (MTS) [4]	viability and metabolic activity of healthy cells [5]	effect on Nrf2 transcriptional activity [6]	effect on activity of Bortezomib (cell growth, MTS) [7]	cell growth (MTS) [8]	effect on NFAT transcriptional activity [9]	viability and metabolic activity of healthy cells [11]	effect on activity of Panobinostat (cell growth, MTS) [12]	ROS levels ([13]; after 4 hours)	ROS levels ([13]; after 24 hours)	cell growth (MTS) [14]	specificity of inhibition of transcriptional activity [15]	ROS levels ([16]; after 24 hours)	ROS levels ([16]; after four hours)	secretion of IL-6 [17]
–	CC(C)C[C@H](NC(=O)[C@H](Cc1ccccc1)NC(=O)c1cnccn1)B(O)O [bortezomib, reference compound]	delayed	efficacious	–	–	–	–	–	–	–	–	–	–	–	–	–	–	–	–	–
slow	CCCCCCOc1ccc2cc3c(=O)[nH]c(=O)nc-3oc2c1Cl [IT-848, 9-chloro-8-(hexyloxy)-2H-chromeno[2,3-d]pyrimidine-2,4(3H)-dione]	delayed	efficacious	decreased	inhibits growth	inhibits growth	acceptable level of compromise	spared	enhances the activity	inhibits growth	spared	acceptable level of compromise	enhances the activity	did not alter levels	small increase	inhibits growth	specific to NF-kB	decreased levels	unchanged or increased levels	decreased
–	COCCCCOc1ccc2cc3c(=O)[nH]c(=O)nc-3oc2c1Cl [IT-878, 9-chloro-8-(4-methoxybutoxy)-2H-chromeno[2,3-d]pyrimidine-2,4(3H)-dione]	–	–	–	–	–	acceptable level of compromise	spared	–	–	spared	acceptable level of compromise	–	–	–	–	specific to NF-kB	–	–	–
